Values quoted from earlier work as cited in patent publication US20240024159A1, “POSTERIOR CHAMBER PLACEMENT OF SUSTAINED RELEASE IMPLANT” (Allergan, Inc., priority 2020, published 2024).

Test system: prostaglandin (PG) sensitive receptors

interaction with prostaglandin (PG) sensitive receptors: no meaningful interaction
Compound: CCNC(=O)CCC/C=C\C[C@@H]1[C@@H](/C=C/[C@@H](O)CCc2ccccc2)[C@H](O)C[C@@H]1O [bimatoprost]
